Assay results taken from patent US20240101602A1, “ANTIMICROBIAL PEPTIDES AND METHOD OF PREVENTING OR TREATING INFECTION BY USING THE SAME” (priority 2020, published 2024).
≈ marks a conversion by molar mass, not a printed value. Like-named read-outs stand apart in the source and are kept apart here. Non-standard residues stand in square brackets, D forms with d. Residues, ends and D or L forms follow the SMILES beside them. *: point of attachment. Palmitoyl = CCCCCCCCCCCCCCCC(=O)*; Octanoyl = CCCCCCCC(=O)*; Orn = NCCC[C@H](N)C(=O)O; Hexanoyl = CCCCCC(=O)*; Butyryl = CCCC(=O)*

Columns and labels:
[1] = tested on: Klebsiella pneumonia NTUH-K2044
[2] = tested on: Staphylococcus aureus BCRC 10777
[3] = tested on: Staphylococcus epidermidis ATCC 14990
Botrytis cinerea = assay type: cell-based
Protocol: (§1) The experiments were conducted in an optimal minimal medium for each pathogen. The media and growth conditions were described in Tables 2 and 3. MIC and MBC values were determined following the procedures described above. […] Fifty microliters of serially diluted peptides (2-fold the final concentration) were added in a 96-well polystyrene plate with 50 μL of the fungal spore suspension. […] The plates were incubated at an optimal temperature without shaking. […] MFC was determined as the lowest peptide concentration at which no fungal growth was observed.

[4] = tested on: Pseudomonas aeruginosa ATCC 9027
Erwinia chrysanthemi = assay type: cell-based
Protocol: (§2) The effect of peptide length on the antimicrobial activity was investigated by deciding the minimal inhibitory concentration (MIC) and minimal bactericidal concentration (MBC) for each peptide against the pathogen with the media and growth conditions of phytopathogenic bacteria and E. coli as described in Table 1. Single bacterial colony grown on an optimal rich agar medium was picked, and each grew in 3 mL of the same rich liquid medium for 4 to 6 h. For experiments carried out in the rich medium, the bacterial broth culture was then diluted in the same medium to give a final concentration of OD600=0.08, and then further diluted 100 folds in the same medium. For experiments carried out in the minimal medium, the bacterial cells were collected from the bacterial liquid culture by centrifugation, re-suspended in an optimal minimal medium to give a final concentration of OD600=0.08, and then further diluted 100 folds in the same minimal medium. Fifty microliters of serially diluted peptides (2-fold the final concentration) were added in a 96-well polystyrene plate with 50 μL of the bacterial culture. […] The plates were incubated at an optimal temperature without shaking. […] MBC was determined as the lowest peptide concentration at which no colonies formed. The experiments were conducted in an optimal minimal medium for each pathogen. The media and growth conditions were described in Tables 2 and 3. MIC and MBC values were determined following the procedures described above. […] Fifty microliters of serially diluted peptides (2-fold the final concentration) were added in a 96-well polystyrene plate with 50 μL of the fungal spore suspension.

[5] = tested on: Pectobacterium carotovorum subsp. carotovorum; assay type: cell-based
Protocol: as §2

Eco DH5α = assay: MIC and MBC by serial dilution in 96-well plate; assay type: cell-based, Escherichia coli; conditions: Table 13
Protocol: The effect of peptide length on the antimicrobial activity was investigated by deciding the minimal inhibitory concentration (MIC) and minimal bactericidal concentration (MBC) for each peptide against the pathogen with the media and growth conditions of phytopathogenic bacteria and E. coli as described in Table 1. Single bacterial colony grown on an optimal rich agar medium was picked, and each grew in 3 mL of the same rich liquid medium for 4 to 6 h.
For experiments carried out in the rich medium, the bacterial broth culture was then diluted in the same medium to give a final concentration of OD600=0.08, and then further diluted 100 folds in the same medium.
For experiments carried out in the minimal medium, the bacterial cells were collected from the bacterial liquid culture by centrifugation, re-suspended in an optimal minimal medium to give a final concentration of OD600=0.08, and then further diluted 100 folds in the same minimal medium.
Fifty microliters of serially diluted peptides (2-fold the final concentration) were added in a 96-well polystyrene plate with 50 μL of the bacterial culture. The final concentrations of peptides were 0, 2, 4, 8, 16 and 32 μg/mL. The plates were incubated at an optimal temperature without shaking.
MBC was determined as the lowest peptide concentration at which no colonies formed.

[6] = tested on: Salmonella typhimurium NCHU 15721
[7] = tested on: Cryptococcus neoformans T1 (fluconazole-resistant)
[8] = tested on: Cryptococcus neoformans H99
[9] = tested on: Cryptococcus deuterogattii R265
[10] = tested on: Cryptococcus neoformans 89-610 (fluconazole-resistant)
Cgl FST02 = assay type: cell-based, Colletotricum gloeosporioides; conditions: Cgl FST02; optimal minimal media (Table 11)
Protocol: as §1

[11] = Pseudomonas aeruginosa ATCC 9027
[12] = Salmonella typhimurium NCHU 15721
[13] = Bc, optimal minimal media (Table 11)

Molecule | MBC [1] [µg/mL] | MIC [1] [µg/mL] | MBC [2] [µg/mL] | MIC [2] [µg/mL] | MBC [3] [µg/mL] | MIC [3] [µg/mL] | MBC ([4]; ATCC 9027) [µg/mL] | MIC ([4]; ATCC 9027) [µg/mL] | further results
Ac-WRRLRRLLRRLRRL-NH2 [pepR2] | 32 | 32 | 16 | 16 | 16 | 16 | – | – | –
CCCCCCCCCCCCCCCC(=O)N[C@@H](Cc1c[nH]c2ccccc12)C(=O)N[C@@H](CCCCN)C(=O)N[C@@H](CCCCN)C(=O)N[C@@H](CC(C)C)C(=O)N[C@@H](CCCCN)C(=O)N[C@@H](CCCCN)C(=O)N[C@@H](CC(C)C)C(=O)N[C@@H](CC(C)C)C(=O)N[C@@H](CCCCN)C(=O)N[C@@H](CCCCN)C(=O)N[C@@H](CC(C)C)C(=O)N[C@@H](CCCCN)C(=O)N[C@@H](CCCCN)C(=O)N[C@@H](CC(C)C)C(N)=O [pepD2P] (Palmitoyl-WKKLKKLLKKLKKL-NH2) | – | – | – | – | – | – | – | – | MFC (Botrytis cinerea): 6.4 µg/mL (≈ 3.15 µM); MIC (Botrytis cinerea): 6.4 µg/mL (≈ 3.15 µM)
Ac-WKKLKKALKKL-NH2 [pepD3-7A] | – | – | – | – | – | – | 8 | 4 | –
Ac-WKKLRKLLKKL-NH2 [pepD3-5R] | – | – | – | – | – | – | – | – | MBC [4, 11]: 8 µg/mL; MIC [4, 11]: 4 µg/mL
Ac-WKKIKKIIKKIKKI-NH2 [pepI2] | 32 | 16 | 32 | 32 | 32 | 16 | 4 | 4 | MBC (Erwinia chrysanthemi): 16.0 µg/mL; MIC (Erwinia chrysanthemi): 16.0 µg/mL; MBC [5]: 1.8 µg/mL; MIC [5]: 1.5 µg/mL; MBC (Eco DH5α): 5.3 µg/mL; MIC (Eco DH5α): 5.3 µg/mL; MBC [6, 12]: 16 µg/mL; MIC [6, 12]: 8 µg/mL
CCCCCC(=O)N[C@@H](Cc1c[nH]c2ccccc12)C(=O)N[C@@H](CCCCN)C(=O)N[C@@H](CCCCN)C(=O)N[C@@H](CC(C)C)C(=O)N[C@@H](CCCCN)C(=O)N[C@@H](CCCCN)C(=O)N[C@@H](CC(C)C)C(=O)N[C@@H](CC(C)C)C(=O)N[C@@H](CCCCN)C(=O)N[C@@H](CCCCN)C(=O)N[C@@H](CC(C)C)C(N)=O [pepD3H] (Hexanoyl-WKKLKKLLKKL-NH2) | 16 (≈ 10.5 µM) | 16 (≈ 10.5 µM) | 8 (≈ 5.25 µM) | 8 (≈ 5.25 µM) | 16 (≈ 10.5 µM) | 16 (≈ 10.5 µM) | 8 (≈ 5.25 µM) | 4 (≈ 2.63 µM) | MBC ([6]; murium NCHU 15721): 32 µg/mL (≈ 21 µM); MIC ([6]; murium NCHU 15721): 16 µg/mL (≈ 10.5 µM)
CC(=O)N[C@@H](Cc1c[nH]c2ccccc12)C(=O)N[C@@H](CCCN)C(=O)N[C@@H](CCCN)C(=O)N[C@@H](CC(C)C)C(=O)N[C@@H](CCCN)C(=O)N[C@@H](CCCN)C(=O)N[C@@H](CC(C)C)C(=O)N[C@@H](CC(C)C)C(=O)N[C@@H](CCCN)C(=O)N[C@@H](CCCN)C(=O)N[C@@H](CC(C)C)C(=O)N[C@@H](CCCN)C(=O)N[C@@H](CCCN)C(=O)N[C@@H](CC(C)C)C(N)=O [pepO2, Ac-WOOLOOLLOOLOOL-NH2] (Ac-W[Orn][Orn]L[Orn][Orn]LL[Orn][Orn]L[Orn][Orn]L-NH2) | 32 (≈ 18.6 µM) | 16 (≈ 9.28 µM) | 32 (≈ 18.6 µM) | 32 (≈ 18.6 µM) | 32 (≈ 18.6 µM) | 32 (≈ 18.6 µM) | – | – | –
Ac-WKKLKKILKKL-NH2 [pepD3-7I] | – | – | – | – | – | – | 4 | 4 | –
CCCCCCCC(=O)N[C@@H](Cc1c[nH]c2ccccc12)C(=O)N[C@@H](CCCCN)C(=O)N[C@@H](CCCCN)C(=O)N[C@@H](CC(C)C)C(=O)N[C@@H](CCCCN)C(=O)N[C@@H](CCCCN)C(=O)N[C@@H](CC(C)C)C(=O)N[C@@H](CC(C)C)C(=O)N[C@@H](CCCCN)C(=O)N[C@@H](CCCCN)C(=O)N[C@@H](CC(C)C)C(N)=O [pepD3O] (Octanoyl-WKKLKKLLKKL-NH2) | 16 (≈ 10.3 µM) | 16 (≈ 10.3 µM) | 8 (≈ 5.16 µM) | 8 (≈ 5.16 µM) | 8 (≈ 5.16 µM) | 8 (≈ 5.16 µM) | – | – | –
Ac-WKKLHKLLKKL-NH2 [pepD3-5H] | – | – | – | – | – | – | 8 | 4 | –
CC(=O)N[C@@H](Cc1c[nH]c2ccccc12)C(=O)N[C@H](CCCCN)C(=O)N[C@H](CCCCN)C(=O)N[C@H](CC(C)C)C(=O)N[C@H](CCCCN)C(=O)N[C@H](CCCCN)C(=O)N[C@H](CC(C)C)C(=O)N[C@H](CC(C)C)C(=O)N[C@H](CCCCN)C(=O)N[C@H](CCCCN)C(=O)N[C@H](CC(C)C)C(N)=O [pepdD3, Ac-Wkklkkllkkl-NH2] (Ac-W[dK][dK][dL][dK][dK][dL][dL][dK][dK][dL]-NH2) | – | – | – | – | – | – | – | – | MIC ([7]; Cryptococcus neoformans T1 (fluconazole-resistant)): 4 µg/mL (≈ 2.73 µM); MFC ([7]; T1 (fluconazole-resistant)): 4 µg/mL (≈ 2.73 µM); MIC ([8]; Cryptococcus neoformans H99): 8 µg/mL (≈ 5.45 µM); MFC ([8]; H99): 8 µg/mL (≈ 5.45 µM); MFC [9]: 4 µg/mL (≈ 2.73 µM); MIC ([9]; Cryptococcus deuterogattii R265): 4 µg/mL (≈ 2.73 µM); MFC ([10]; 89-610 (fluconazole-resistant)): 4 µg/mL (≈ 2.73 µM); MIC ([10]; Cryptococcus neoformans 89-610 (fluconazole-resistant)): 4 µg/mL (≈ 2.73 µM)
Ac-WKKLKKMLKKL-NH2 [pepD3-7M] | – | – | – | – | – | – | 8 | 4 | –
Ac-WKKVKKVVKKVKKV-NH2 [pepV2] | – | – | – | – | – | – | – | – | MBC (Eco DH5α): 32.0 µg/mL; MIC (Eco DH5α): 32.0 µg/mL
Ac-WKKLKKFLKKL-NH2 [pepD3-7F] | – | – | – | – | – | – | 8 | 4 | –
Stearyl-WKKLKKLLKKLKKL-NH2 (stearyl-WKKLKKLLKKLKKL-NH2) [pepD2S, 11] | – | – | – | – | – | – | – | – | MFC (Cgl FST02): — (“—” indicates no antimicrobial activity being detected at the highest peptide concentration (32 μg/mL) tested in this study.); MIC (Cgl FST02): — (“—” indicates no antimicrobial activity being detected at the highest peptide concentration (32 μg/mL) tested in this study.); MFC (Botrytis cinerea; [13]): — (“—” indicates no antimicrobial activity being detected at the highest peptide concentration (32 μg/mL) tested in this study.); MIC (Botrytis cinerea; [13]): — (“—” indicates no antimicrobial activity being detected at the highest peptide concentration (32 μg/mL) tested in this study.)
CCCC(=O)N[C@@H](Cc1c[nH]c2ccccc12)C(=O)N[C@@H](CCCCN)C(=O)N[C@@H](CCCCN)C(=O)N[C@@H](CC(C)C)C(=O)N[C@@H](CCCCN)C(=O)N[C@@H](CCCCN)C(=O)N[C@@H](CC(C)C)C(=O)N[C@@H](CC(C)C)C(=O)N[C@@H](CCCCN)C(=O)N[C@@H](CCCCN)C(=O)N[C@@H](CC(C)C)C(N)=O [pepD3B] (Butyryl-WKKLKKLLKKL-NH2) | 16 (≈ 10.7 µM) | 16 (≈ 10.7 µM) | 16 (≈ 10.7 µM) | 16 (≈ 10.7 µM) | 16 (≈ 10.7 µM) | 16 (≈ 10.7 µM) | – | – | –
